A short description of series [1]: Stability in human plasma assessed as peptide degradation at 200 ug/ml incubated for 48 hrs by LC-MS/MS analysis. The conditions noted are these: at 200 µg/mL. Format: ADME, cell-free.
For series [2], the target named is Spike glycoprotein/Angiotensin-converting enzyme 2 (Severe acute respiratory syndrome coronavirus 2, UniProt P0DTC2). Briefly: Inhibition of SARS-CoV-2 spike protein RBD- human ACE2 interaction incubated for 1 hr by colorimetric ELISA assay. (In general: ELISA stands for enzyme-linked immunosorbent assay.)
Series [3] concerns the target Spike glycoprotein/Angiotensin-converting enzyme 2 (Severe acute respiratory syndrome coronavirus 2) (UniProt Q9BYF1+P0DTC2). The experiment in a line: Inhibition of SARS-CoV-2 spike protein RBD- human ACE2 interaction at 30 uM incubated for 1 hr by colorimetric ELISA assay relative to control.

What is called IC50 is the point on the concentration scale where inhibition reaches its midpoint. As usually defined, the inhibition is the percentage by which the read-out fell short of the control.

Where a SMILES comes first, the peptide text is derived from it. Bridges are numbered along the chain shown (N, C = ends). [ ]: non-standard residue; d: D form. S5 = C=CCCC[C@](C)(N)C(=O)O

With `CC(C)C[C@@H]1NC(=O)[C@H](CC(=O)O)NC(=O)[C@H](CCC(=O)O)NC(=O)[C@@](C)(NC(=O)[C@H](CCC(=O)O)NC(=O)[C@@H](N)Cc2c[nH]cn2)CCC/C=C\CCC[C@@](C)(C(=O)N[C@@H](Cc2ccc(O)cc2)C(=O)N[C@@H](CCC(N)=O)C(N)=O)NC1=O` (H-HE[S5]EDL[S5]YQ-NH2; staple (Z) 3-7), in series [1], the Stability result was “Stable”. Inhibition in series [2] was half-maximal at 21 µM (IC50). The compound also gave an inhibition in series [3] of 55%.
As to H-HEAEDLFYQ-NH2, the Stability entry in series [1] was “Stable”.

The values are drawn from ChEMBL document CHEMBL5346879, “Identification of a short ACE2-derived stapled peptide targeting the SARS-CoV-2 spike protein” (Eur J Med Chem, 2023).
